# In article PMC12884720, “Gabpα‐Pparγ Complex Determines Glycolytic Capacity and Lactic Acid Homeostasis in Brown Fat” (Advanced Science, 2025):
# Residues, ends and D or L forms follow the SMILES beside them. *: point of attachment. FITC = O=C1OC2(c3ccc(O)cc3Oc3cc(O)ccc32)c2ccc(NC(=S)*)cc21
# Tested on: Eno1 promoter
# Assay: Luciferase reporter assay, Eno1-Luc activated by Gabpα and Pparγ/Rxrα
# Format: cell-based, human
# Settings: HEK293T cells, GPCBi 3 µM, n = 3 (Figure 4g)
# Experimental: HEK293T cells were transfected with 100 ng of Pparγ and 100 ng of Rxrα or empty vector together with 100 ng of Gabpα plasmid or the C‐terminal truncation mutants and 200 ng of Eno1 luciferase reporter plasmid in 24‐well plates via Lipofectamine reagent (Yeasen, Shanghai, China, Cat# 40802ES03). For the experiments with the peptides GPCBi or T0070907, the additional peptides GPCBi (3 µM) or T0070907 (10 µM) were added to the HEK293T cells one day after the plasmid complex was transfected. After 48 h of transfection, luciferase activity was measured via the Dual‐Luciferase Reporter Assay System (Vazyme Biotech., Nanjing, China; Cat# DL101‐01). Firefly luciferase reporter gene measurements were normalized to Renilla luciferase activity.
smiles,measurement,value
CC[C@H](C)[C@H](NC(=O)[C@H](CCCNC(=N)N)NC(=O)[C@H](CS)NC(=O)[C@H](CC(N)=O)NC(=O)[C@H](CC(C)C)NC(=O)[C@H](CC(=O)O)NC(=O)[C@H](CS)NC(=O)[C@H](CCCNC(=N)N)NC(=O)[C@H](CC(=O)O)NC(=O)[C@H](Cc1ccc(O)cc1)NC(=O)[C@@H](NC(=O)[C@H](CC(C)C)NC(=O)[C@H](CCCCN)NC(=O)[C@H](CC(C)C)NC(=O)[C@H](CCCNC(=N)N)NC(=O)[C@@H](NC(=O)[C@@H](NC(=O)[C@H](CCCNC(=N)N)NC(=O)[C@H](CCCNC(=N)N)NC(=O)[C@H](CCCNC(=N)N)NC(=O)[C@H](CCCNC(=N)N)NC(=O)[C@H](CCCNC(=N)N)NC(=O)[C@H](CCC(N)=O)NC(=O)[C@H](CCCNC(=N)N)NC(=O)[C@H](CCCNC(=N)N)NC(=O)[C@H](CCCCN)NC(=O)[C@H](CCCCN)NC(=O)[C@H](CCCNC(=N)N)NC(=O)CNC(=O)[C@H](Cc1ccc(O)cc1)NC(=S)Nc1ccc2c(c1)C(=O)OC21c2ccc(O)cc2Oc2cc(O)ccc21)[C@@H](C)O)[C@@H](C)CC)[C@@H](C)CC)C(=O)N[C@@H](Cc1c[nH]cn1)C(=O)N[C@@H](CCCCN)C(=O)N[C@@H](CCCCN)C(=O)N[C@@H](CO)C(=O)N[C@@H](CCCNC(=N)N)C(=O)N[C@@H](CC(N)=O)C(=O)N[C@@H](CCCCN)C(=O)O [GPCBi] ({FITC}-YGRKKRRQRRRRRTIRLKLIYDRCDLNCRIHKKSRNK-OH; N-terminus and C-terminus assumed),Gabpα‐Pparγ complex‐mediated activation of the Eno1 promoter,suppressed
